The numbers were not newly measured in patent US20120010229A1, “THERAPEUTIC REGIMENS FOR HEDGEHOG-ASSOCIATED CANCERS” (priority 2010, published 2012), which cites them from elsewhere.

For the series the following is noted: in vivo, cited from earlier work.

With `CC1=C2C[C@H]3[C@@H](CC[C@@H]4C[C@H](NS(C)(=O)=O)CC[C@@]43C)[C@@H]2CC[C@@]2(C1)O[C@@H]1C[C@H](C)CN[C@H]1[C@H]2C` [IPI-926], the duration of action result is reported as “long duration of action” and the plasma half-life entry is reported as “long plasma half-life”. For the same compound, the oral bioavailability entry (po) is reported as “orally bioavailable”.
